Measured values as given in patent publication US5962476A, “Azolylamine derivative” (Kaken Pharmaceutical Co., Ltd., priority 1993, dated 1999).
≈ marks a conversion by molar mass, not a printed value. Where two headings read alike, the source gives them in different places.

How the values were obtained:
[1] = test system: Candida albicans ATCC-10259; experiment: Minimum inhibitory concentration (MIC), dilution method in SAAMF medium, 35° C. for 2 days; assay type: cell-based; settings: ATCC10259, 48 h, read-out: Minimum inhibitory concentration (MIC), C.a.
Protocol: (§1) MIC of a test compound against Candida albicans ATCC-10259 was determined by the both dilution method employing synthetic amino acid medium (SAAMF medium). Namely, to 3 μl of twofold dilution series of solution containing the test compound was added 300 μl of SAAMF medium inoculated with the fungus at the final concentration of 1×10^3 cells/ml. […] MIC of a test compound against the fungus other than the Candida albicans was determined by the agar dilution method employing Sabouraud's agar medium. That is to say, a test compound was dissolved in dimethyl sulfoxide to give a solution containing the test compound in the concentration of 10 mg/ml. Further, thus obtained solution was diluted with dimethyl sulfoxide according to twofold dilution series and 0.1 ml of the diluted solution was taken into a sterile shale. After 9.9 ml of Sabouraud's agar medium was added thereto, the mixture was sufficiently mixed to give a drug-added plate. The plate was inoculated with 5 μl of a fungus suspension at 10^6 cells/ml by Microplanter (Sakuma Seisakusho Co., Ltd.). As to Aspergillus fumigatus NI-5561 and Cryptococcus neoformans NI-7496, a plate was incubated at 30° C. for 48 hours. As to Trichophyton mentagrophytes KD-01, a plate was incubated at 30° C. for 7 days. […] Clotrimazole and fluconazole were used as comparative control compounds.
Candida albicans ATCC 10259

[2] = test system: Aspergillus fumigatus NI-5561; experiment: Minimum inhibitory concentration (MIC), agar dilution method on Sabouraud's agar medium, 30° C. for 48 hours; assay type: cell-based; settings: read-out: Minimum inhibitory concentration (MIC), A.f.
Protocol: as §1
Aspergillus fumigatus NI-5561

[3] = test system: Cryptococcus neoformans NI-7496; experiment: as above; assay type: cell-based; settings: read-out: Minimum inhibitory concentration (MIC), Cr.n.
Protocol: as §1
Cryptococcus neoformans NI-7496

[4] = Acute toxicity test for mice; assay type: in vivo, male ICR mouse
Protocol: The compound of Example 1 was dissolved in polyethylene glycol 200 and the resultant solution was applied to a male ICR mouse of 5 weeks old by oral or subcutaneous administration.

Candida albicans KC-36 = experiment: Therapeutic effect on cutaneous candidiasis in guinea pigs; assay type: in vivo, male Hartley guinea pig; settings: guinea pig, topical 1% solution, 0.2 ml once a day for 3 days from 2 days after infection
Protocol: Inhibitory ratio (%={1-(number of tissue specimens found fungi/total number
of tissue specimens)}×100
In the back of male Hartley guinea pig, weighing 400 to 500 g, a portion of skin was unhaired, to which […] of spore suspension of Candida albicans KC-36 (5×10^7 cells/ml) was dropped and the skin surface was infected by rubbing it with a glass rod. To facilitate the infection, prednisolone was subcutaneously administered at 30 mg/kg on one day before the infection, the day of infection and 4 days after the infection. […] The animal was killed by etherization 2 days after the last treatment and 10 tissue specimens of skin were cut out from the infected portion and incubated on CANDIDA GS AGAR `EIKEN` (EIKEN CHEMICAL CO., LTD. ) for 7 days. The inhibitory ratio was calculated according to the above-mentioned formula. Clotrimazole was employed as a control compound.

[5] = test system: Trichophyton mentagrophytes KD-04; experiment: Effect on trichophytosis in guinea pigs; assay type: in vivo, male Hartley guinea pig; settings: guinea pig, topical 1% solution, 0.2 ml once a day for 10 days from 3 days after infection
Protocol: In the back of male Hartley guinea pig, weighing 400 to 500 g, a portion of skin was unhaired and rubbed lightly with sandpaper, to which 0.1 ml of microconidium suspension of Trichophyton mentagrophytes KD-04 (10^7 cells/ml) was dropped and the skin surface was infected by rubbing it with a glass rod. […] The animal was killed by etherization 2 days after the last treatment and 10 tissue specimens of skin were cut out from the infected portion and incubated on Sabouraud's agar medium for 7 days. Inhibitory ratio was calculated according to the following formula: […] of tissue specimens)}×100 The results are shown in Table 2. Clotrimazole was used as a control compound.

[6] = test system: Trichophyton mentagrophytes KD-01; experiment: Minimum inhibitory concentration (MIC), agar dilution method on Sabouraud's agar medium, 30° C. for 7 days; assay type: cell-based; settings: KD01, 168 h, read-out: Minimum inhibitory concentration (MIC), T.m.
Protocol: as §1, with “compounds. |Trichophyton mentagrophytes KD-01 | T. m.” for “compounds.”

[7] = Candida albicans ATCC 10259, SAAMF medium, 35° C., 2 days
[8] = NI5561, Aspergillus fumigatus NI-5561, Sabouraud's agar, 30° C., 48 hours
[9] = NI7496, Cryptococcus neoformans NI-7496, Sabouraud's agar, 30° C., 48 hours
[10] = Aspergillus fumigatus, NI5561, 48 h
[11] = Cryptococcus neoformans, NI7496, 48 h

SMILES | MIC [1, 7] [µg/mL] | MIC [2, 8] [µg/mL] | MIC [3, 9] [µg/mL] | MIC [6] [µg/mL] | other results
C=C1CCN([C@H](C)[C@](O)(Cn2cncn2)c2ccc(F)cc2F)CC1 [Example 1, (2R,3R)-2-(2,4-difluorophenyl)-3-(4-methylenepiperidino)-1-(1H-1,2,4-triazol-1-yl)butan-2-ol] | < 0.025 | 0.05 (≈ 0.144 µM) | 0.05 (≈ 0.144 µM) | 0.39 (≈ 1.12 µM) | Number of died mice/number of tested mice ([4]; oral, 500 mg/kg): 0/3; Number of died mice/number of tested mice ([4]; oral, 1000 mg/kg): 0/3; Number of died mice/number of tested mice ([4]; subcutaneous, 125 mg/kg): 0/3; Number of died mice/number of tested mice ([4]; subcutaneous, 250 mg/kg): 0/3; Number of died mice/number of tested mice ([4]; subcutaneous, 500 mg/kg): 0/3; Number of died mice/number of tested mice ([4]; subcutaneous, 1000 mg/kg): 0/3; Inhibitory ratio (Candida albicans KC-36): 98%; Inhibitory ratio [5]: 98%
C=C1CCN([C@H](C)[C@](O)(Cn2cncn2)c2ccc(F)cc2F)C1 [Example 14, (2R,3R)-2-(2,4-difluorophenyl)-3-(3-methylenepyrrolidino)-1-(1H-1,2,4-triazol-1-yl)butan-2-ol] | < 0.025 | 0.39 (≈ 1.17 µM) | 0.39 (≈ 1.17 µM) | 0.78 (≈ 2.33 µM) | 
C=C1CCN([C@H](C)[C@](O)(Cn2cncn2)c2ccc(F)cc2F)CC1 (racemic) [Example 2, (2RS,3RS)-2-(2,4-difluorophenyl)-3-(4-methylenepiperidino)-1-(1H-1,2,4-triazol-1-yl)butan-2-ol] | < 0.025 | 0.1 (≈ 0.287 µM) | 0.1 (≈ 0.287 µM) | 0.39 (≈ 1.12 µM) | 
CC=C1CCN([C@H](C)[C@](O)(Cn2cncn2)c2ccc(F)cc2F)CC1 (racemic) [Example 8, (2RS,3RS)-2-(2,4-difluorophenyl)-3-(4-ethylidenepiperidino)-1-(1H-1,2,4-triazol-1-yl)butan-2-ol] | < 0.025 | 0.2 (≈ 0.552 µM) | 0.1 (≈ 0.276 µM) | 0.78 (≈ 2.15 µM) | 
C=C1CCCN([C@H](C)[C@](O)(Cn2cncn2)c2ccc(F)cc2F)C1 [Example 13, (2R,3R)-2-(2,4-difluorophenyl)-3-(3-methylenepiperidino)-1-(1H-1,2,4-triazol-1-yl)butan-2-ol] | 0.1 (≈ 0.287 µM) | 0.78 (≈ 2.24 µM) | 0.39 (≈ 1.12 µM) | 1.56 (≈ 4.48 µM) | 
C=C1CCN([C@H](C)[C@](O)(Cn2cncn2)c2ccc(Cl)cc2Cl)CC1 [Example 7, (2R,3R)-2-(2,4-dichlorophenyl)-3-(4-methylenepiperidino)-1-(1H-1,2,4-triazol-1-yl)butan-2-ol] | 0.025 (≈ 0.0656 µM) | 0.39 (≈ 1.02 µM) | 0.05 (≈ 0.131 µM) | 0.39 (≈ 1.02 µM) | 
Clc1ccccc1C(c1ccccc1)(c1ccccc1)n1ccnc1 [Clotrimazole, reference compound] |  |  |  | 0.39 (≈ 1.13 µM) | MIC ([1]; Candida albicans): 0.025 µg/mL (≈ 0.0725 µM); MIC [2, 10]: 0.78 µg/mL (≈ 2.26 µM); MIC [3, 11]: 0.2 µg/mL (≈ 0.58 µM); Inhibitory ratio (Candida albicans KC-36): 96%; Inhibitory ratio [5]: 20%
C[C@@H](N1CCC(=Cc2ccccc2)CC1)[C@](O)(Cn1cncn1)c1ccc(F)cc1F (racemic) [Example 10, (2RS,3RS)-2-(2,4-difluorophenyl)-3-(4-benzylidenepiperidino)-1-(1H-1,2,4-triazol-1-yl)butan-2-ol] | < 0.025 | 0.1 (≈ 0.236 µM) | 0.025 (≈ 0.0589 µM) | 0.39 (≈ 0.919 µM) | 
C=C1CCN([C@H](C)[C@](O)(Cn2ccnc2)c2ccc(F)cc2F)CC1 [Example 4, (2R,3R)-2-(2,4-difluorophenyl)-3-(4-methylenepiperidino)-1-(1H-imidazol-1-yl)butan-2-ol] | < 0.025 | 0.05 (≈ 0.144 µM) | < 0.025 | < 0.025 | 
C=C1CCN([C@@H](C)[C@@](O)(Cn2cncn2)c2ccc(F)cc2F)CC1 [Example 3, (2S,3S)-2-(2,4-difluorophenyl)-3-(4-methylenepiperidino)-1-(1H-1,2,4-triazol-1-yl)butan-2-ol] | 0.39 (≈ 1.12 µM) | > 100 | 0.78 (≈ 2.24 µM) | 50 (≈ 144 µM) | 
C=C1CCN([C@H](C)[C@](O)(Cn2cncn2)c2ccc(Cl)cc2)CC1 [Example 6, (2R,3R)-2-(4-chlorophenyl)-3-(4-methylenepiperidino)-1-(1H-1,2,4-triazol-1-yl)butan-2-ol] | < 0.0125 | 6.25 (≈ 18 µM) | 0.2 (≈ 0.577 µM) | 3.13 (≈ 9.02 µM) | 
C=C1CCN([C@H](C)[C@](O)(Cn2ccnc2)c2ccc(F)cc2F)CC1 (racemic) [Example 5, (2RS,3RS)-2-(2,4-difluorophenyl)-3-(4-methylenepiperidino)-1-(1H-imidazol-1-yl)butan-2-ol] | < 0.025 | 0.05 (≈ 0.144 µM) | 0.025 (≈ 0.072 µM) | 0.1 (≈ 0.288 µM) | 
OC(Cn1cncn1)(Cn1cncn1)c1ccc(F)cc1F [Fluconazole, reference compound] |  |  |  | > 100 | MIC ([1]; Candida albicans): 0.39 µg/mL (≈ 1.27 µM); MIC [2, 10]: > 100 µg/mL; MIC [3, 11]: 12.5 µg/mL (≈ 40.8 µM)
C=CC=C1CCN([C@H](C)[C@](O)(Cn2cncn2)c2ccc(F)cc2F)CC1 [Example 12, (2R,3R)-2-(2,4-difluorophenyl)-3-(4-propenylidenepiperidino)-1-(1H-1,2,4-triazol-1-yl)butan-2-ol] | < 0.025 | 0.2 (≈ 0.534 µM) | 0.1 (≈ 0.267 µM) | 0.78 (≈ 2.08 µM) | 
